Eleven molecules from DBAASP can be followed below.

Among the test systems are Bacillus subtilis; Bacillus subtilis 168; Micrococcus luteus; Staphylococcus aureus.
Common to all, as to test: ≥ marks a high value that may be exact or a test limit, other limits are often not marked, values filed in µg/mL are converted to µM
Experiment [1] concerns Escherichia coli DH5alpha.
In experiment [2] the test system is Klebsiella pneumoniae ATCC 13883.
Experiment [3] relates to Staphylococcus aureus ATCC 25923.
Experiment [4] concerns Escherichia coli ATCC 25922.
Experiment [5] relates to Pseudomonas aeruginosa PAO1.
The test system of experiment [6] is Staphylococcus aureus USA 300.
Experiment [7] has as its system Candida albicans ATCC 2002.
Experiment [8] relates to Pseudomonas aeruginosa CMCCB 10104.

The structures appear in SMILES notation. Converted amounts (≈) assume the structure as drawn.

Consider `CC[C@H](C)[C@@H]1NC(=O)CNC(=O)[C@H](Cc2c[nH]c3ccccc23)NC(=O)[C@@H]2CSSC[C@H](NC(=O)[C@H](C)N)C(=O)N[C@@H](CCC(N)=O)C(=O)N[C@@H](Cc3ccccc3)C(=O)N[C@@H](Cc3c[nH]c4ccccc34)C(=O)N[C@@H](CO)C(=O)N[C@H]3CSSC[C@H](NC(=O)[C@H](Cc4ccc(O)cc4)NC(=O)[C@H](CCCCN)NC(=O)[C@H](Cc4ccc(O)cc4)NC(=O)[C@H](CCC(N)=O)NC1=O)C(=O)N[C@@H](CCC(N)=O)C(=O)N[C@H](C(=O)N[C@@H](CCC(N)=O)C(=O)O)CSSC[C@H](NC(=O)[C@H](CO)NC(=O)[C@H](CO)NC(=O)[C@H](CC(N)=O)NC3=O)C(=O)N[C@@H]([C@@H](C)CC)C(=O)N[C@@H](CO)C(=O)N[C@@H](CCCN=C(N)N)C(=O)NCC(=O)N[C@@H](Cc1ccc(O)cc1)C(=O)N[C@@H](CCCN=C(N)N)C(=O)N[C@@H](CCC(N)=O)C(=O)NCC(=O)N[C@@H](Cc1ccc(O)cc1)C(=O)N2` [ACQFWSCNSSCISRGYRQGYCWGIQYKYCQCQ], for which the MIC – broadly, the least concentration at which growth counts as inhibited – was 13.1 µM (≈ 49.9 µg/mL) against Bacillus subtilis, 13.1 µM (≈ 49.9 µg/mL) in experiment [1], 13.1 µM (≈ 49.9 µg/mL) in [2] and over 13.1 µM in experiment [3].
For `CC[C@H](C)[C@H](NC(=O)[C@H](CCCCN)NC(=O)[C@H](CCC(N)=O)NC(=O)[C@@H](NC(=O)[C@@H](NC(=O)[C@H](CCCCN)NC(=O)[C@H](CCCN=C(N)N)NC(=O)[C@H](Cc1ccccc1)NC(=O)CN)[C@@H](C)CC)C(C)C)C(=O)N[C@@H](CCCN=C(N)N)C(=O)N[C@@H](CC(=O)O)C(=O)N[C@@H](Cc1ccccc1)C(=O)N[C@@H](CC(C)C)C(=O)N[C@@H](CCCN=C(N)N)C(=O)N[C@@H](CC(N)=O)C(=O)N[C@@H](CC(C)C)C(=O)N[C@H](C(N)=O)C(C)C` [GFRKIVQKIRDFLRNLV], the MIC in experiment [4] was 4.4 µM (≈ 9.25 µg/mL); in experiment [2], 3.1 µM (≈ 6.51 µg/mL); in experiment [5] it was over 50 µM; in experiment [6], 3.1 µM (≈ 6.51 µg/mL).
As for `CC[C@H](C)[C@H](NC(=O)CN)C(=O)N[C@@H](CC(C)C)C(=O)N[C@@H](CC(=O)O)C(=O)N[C@H](C(=O)N[C@@H](Cc1ccccc1)C(=O)N[C@@H](CCCCN)C(=O)N[C@@H](CC(N)=O)C(=O)N[C@@H](CCSC)C(=O)N[C@@H](C)C(=O)N[C@@H](CC(C)C)C(=O)N[C@@H](CC(N)=O)C(=O)N[C@@H](C)C(=O)N[C@@H](C)C(=O)N[C@@H](CCCCN)C(=O)N[C@@H](CO)C(=O)N[C@@H](C)C(=O)NCC(=O)N[C@H](C(=O)N[C@@H](CO)C(=O)N[C@H](C(=O)N[C@@H](CC(C)C)C(=O)N[C@@H](CC(N)=O)C(=O)N[C@@H](C)C(=O)N[C@@H](CC(C)C)C(=O)N[C@@H](CO)C(=O)N[C@H]1CSSC[C@@H](C(=O)O)NC(=O)[C@H]([C@@H](C)O)NC(=O)[C@H](CCCCN)NC(=O)[C@H](CO)NC(=O)[C@H](CC(C)C)NC(=O)[C@H](CCCCN)NC1=O)C(C)C)C(C)C)[C@@H](C)O` [GILDTFKNMALNAAKSAGVSVLNALSCKLSKTC], the MIC came to 1.78 µM (≈ 6 µg/mL) in experiment [7], 3.59 µM (≈ 12.1 µg/mL) in experiment [4], 3.59 µM (≈ 12.1 µg/mL) in experiment [8] and 3.59 µM (≈ 12.1 µg/mL) in experiment [3].
In the case of `CC[C@H](C)[C@H](NC(=O)[C@@H](NC(=O)[C@H](CC(=O)O)NC(=O)[C@H](CC(C)C)NC(=O)[C@H](CC(C)C)NC(=O)CN)[C@@H](C)O)C(=O)N[C@@H](CCCCN)C(=O)N[C@@H](CC(N)=O)C(=O)N[C@@H](CCSC)C(=O)N[C@@H](C)C(=O)N[C@@H](CC(C)C)C(=O)N[C@@H](CC(N)=O)C(=O)N[C@@H](C)C(=O)N[C@@H](C)C(=O)N[C@@H](CCCCN)C(=O)N[C@@H](CO)C(=O)N[C@@H](C)C(=O)NCC(=O)N[C@H](C(=O)N[C@@H](CO)C(=O)N[C@H](C(=O)N[C@@H](CC(C)C)C(=O)N[C@@H](CC(N)=O)C(=O)N[C@@H](CO)C(=O)N[C@@H](CC(C)C)C(=O)N[C@@H](CO)C(=O)N[C@H]1CSSC[C@@H](C(=O)O)NC(=O)[C@H]([C@@H](C)O)NC(=O)[C@H](CCCCN)NC(=O)[C@H](CO)NC(=O)[C@H](CC(C)C)NC(=O)[C@H](CCCCN)NC1=O)C(C)C)C(C)C` [GLLDTIKNMALNAAKSAGVSVLNSLSCKLSKTC], the MIC in [7] is 3.61 µM (≈ 12.1 µg/mL); in experiment [4], 3.61 µM (≈ 12.1 µg/mL); in experiment [8], 1.79 µM (≈ 6 µg/mL); in experiment [3], 3.61 µM (≈ 12.1 µg/mL).
Consider `CC(C)C[C@H](NC(=O)[C@H](CC(C)C)NC(=O)[C@H](CCCCN)NC(=O)CNC(=O)[C@H](CC(C)C)NC(=O)[C@H](CC(C)C)NC(=O)[C@H](CO)NC(=O)[C@H](CC(C)C)NC(=O)[C@H](C)NC(=O)[C@H](CO)NC(=O)[C@H](CC(C)C)NC(=O)[C@H](CC(C)C)NC(=O)CN)C(N)=O` [GLLSALSLLGKLL], for which the MIC in experiment [4] is 3.1 µM (≈ 4.02 µg/mL); in experiment [2], 3.1 µM (≈ 4.02 µg/mL); in experiment [5] it was over 25 µM; in [6], 0.78 µM (≈ 1.01 µg/mL).
As for `CC(C)C[C@H](NC(=O)[C@H](C)NC(=O)[C@H](CCCCN)NC(=O)CNC(=O)[C@H](CC(C)C)NC(=O)[C@H](CC(C)C)NC(=O)[C@H](CO)NC(=O)[C@H](CC(C)C)NC(=O)[C@H](CC(C)C)NC(=O)[C@H](CO)NC(=O)[C@H](CC(C)C)NC(=O)[C@H](CC(C)C)NC(=O)CN)C(N)=O` [GLLSLLSLLGKAL], the MIC is 3.1 µM (≈ 4.02 µg/mL) in experiment [4], 3.1 µM (≈ 4.02 µg/mL) in experiment [2], over 25 µM in experiment [5] and 0.78 µM (≈ 1.01 µg/mL) in experiment [6].
Take `CC[C@H](C)[C@H](N)C(=O)N[C@@H](CC(=O)O)C(=O)N1CCC[C@H]1C(=O)N[C@@H](Cc1ccccc1)C(=O)N[C@H](C(=O)N[C@@H](C)C(=O)NCC(=O)N[C@H](C(=O)N[C@@H](C)C(=O)N[C@@H](C)C(=O)N[C@@H](CCC(=O)O)C(=O)N[C@@H](CCSC)C(=O)N[C@@H](CCSC)C(=O)N[C@@H](CCC(N)=O)C(=O)N[C@@H](Cc1cnc[nH]1)C(=O)N[C@H](C(=O)N[C@@H](Cc1ccc(O)cc1)C(=O)N[C@H]1CSSC[C@@H](C(=O)O)NC(=O)[C@H](CCCCN)NC(=O)[C@H](CCCCN)NC(=O)[C@H](CO)NC(=O)[C@H](C)NC(=O)[C@H](C)NC1=O)C(C)C)C(C)C)C(C)C` [IDPFVAGVAAEMMQHVYCAASKKC]: the MIC in experiment [7] worked out at 7.08 µM (≈ 18.2 µg/mL); in [4] it was 3.54 µM (≈ 9.09 µg/mL); in [8], 7.08 µM (≈ 18.2 µg/mL); in [3] it was 7.08 µM (≈ 18.2 µg/mL).
As to `CC[C@H](C)[C@H](N)C(=O)N[C@H](C(=O)N1CCC[C@H]1C(=O)N[C@@H](Cc1ccccc1)C(=O)N[C@H](C(=O)N[C@@H](C)C(=O)NCC(=O)N[C@H](C(=O)N[C@@H](C)C(=O)N[C@@H](C)C(=O)N[C@@H](CCC(=O)O)C(=O)N[C@@H](CCSC)C(=O)N[C@@H](CCSC)C(=O)N[C@@H](CCC(=O)O)C(=O)N[C@@H](Cc1cnc[nH]1)C(=O)N[C@H](C(=O)N[C@@H](Cc1ccc(O)cc1)C(=O)N[C@H]1CSSC[C@@H](C(=O)O)NC(=O)[C@H](CCCCN)NC(=O)[C@H](CCCCN)NC(=O)[C@H](CO)NC(=O)[C@H](C)NC(=O)[C@H](C)NC1=O)C(C)C)C(C)C)C(C)C)[C@@H](C)CC` [IIPFVAGVAAEMMEHVYCAASKKC], the MIC is 4.32 µM (≈ 11.1 µg/mL) in experiment [7], 4.32 µM (≈ 11.1 µg/mL) in [4], 8.64 µM (≈ 22.2 µg/mL) in [8] and 8.64 µM (≈ 22.2 µg/mL) in experiment [3].
Turning to `CC[C@H](C)[C@H](N)C(=O)N[C@@H](CC(C)C)C(=O)N1CCC[C@H]1C(=O)N[C@@H](Cc1ccccc1)C(=O)N[C@H](C(=O)N[C@@H](C)C(=O)NCC(=O)N[C@H](C(=O)N[C@@H](C)C(=O)N[C@@H](C)C(=O)N[C@@H](CCC(=O)O)C(=O)N[C@@H](CCSC)C(=O)N[C@@H](CCSC)C(=O)N[C@@H](CCCCN)C(=O)N[C@@H](Cc1cnc[nH]1)C(=O)N[C@H](C(=O)N[C@@H](Cc1ccc(O)cc1)C(=O)N[C@H]1CSSC[C@@H](C(=O)O)NC(=O)[C@H](CCCCN)NC(=O)[C@H](CCCCN)NC(=O)[C@H](CO)NC(=O)[C@H](C)NC(=O)[C@H](C)NC1=O)C(C)C)C(C)C)C(C)C` [ILPFVAGVAAEMMKHVYCAASKKC], the MIC in experiment [7] was 2.96 µM (≈ 7.59 µg/mL); in [4] it was 5.92 µM (≈ 15.2 µg/mL); in experiment [8], 11.8 µM (≈ 30.4 µg/mL); in experiment [3] it was 5.92 µM (≈ 15.2 µg/mL).
With `CC(C)C[C@H](NC(=O)[C@H](CC(C)C)NC(=O)[C@H](CCCCN)NC(=O)[C@H](CC(C)C)NC(=O)CNC(=O)[C@H](CC(C)C)NC(=O)[C@H](CO)NC(=O)[C@H](CC(C)C)NC(=O)[C@H](CC(C)C)NC(=O)[C@H](CC(C)C)NC(=O)[C@H](CO)NC(=O)[C@H](CC(C)C)NC(=O)[C@@H](N)CCCCN)C(N)=O` [KLSLLLSLGLKLL], the MIC in experiment [4] was over 25 µM; in experiment [2] it was 25 µM (≈ 35.2 µg/mL); in experiment [5] it was over 25 µM; in experiment [6], 1.6 µM (≈ 2.26 µg/mL).
With `CC[C@H](C)[C@H](NC(=O)[C@H](Cc1ccccc1)NC(=O)[C@H](CCCCN)NC(=O)[C@H](CCCCN)NC(=O)[C@H](CCC(=O)O)NC(=O)[C@H](CC(N)=O)NC(=O)[C@H](Cc1ccc(O)cc1)NC(=O)[C@H](CCCCN)NC(=O)[C@H](CC(N)=O)NC(=O)[C@H](CC(C)C)NC(=O)[C@H](CCC(=O)O)NC(=O)[C@H](CC(N)=O)NC(=O)[C@H](CC(C)C)NC(=O)[C@H](Cc1ccccc1)NC(=O)[C@H](CO)NC(=O)[C@@H](N)[C@@H](C)O)C(=O)O` [TSFLNELNKYNEKKFI], the MIC against Bacillus subtilis 168 came to 15.7 µM (≈ 31.2 µg/mL); in experiment [4], 31.4 µM (≈ 62.5 µg/mL); against Micrococcus luteus it was 31.4 µM (≈ 62.5 µg/mL); in the experiment with Staphylococcus aureus, 4.17 µM (≈ 8.3 µg/mL).
